According to publication PMC5438973 (Frontiers in Psychiatry, 2017):

Experiments:
h5-HT1B = target: T1, h5-HT1B (Homo sapiens, UniProt P28222); experiment: Radioligand binding, human cloned h5-HT1B; settings: agonist radioligand, read-out: Affinity, Mean
T1 construct: expressed in transfected cells
Description: (§1) Binding affinities at the serotonin receptors were determined by standard radioligand-binding methods using human cloned receptors as reported in the literature ([14], [15]).

h5-HT1E = target: T2, h5-HT1E (Homo sapiens, UniProt P28566); experiment: Radioligand binding, human cloned h5-HT1E; settings: agonist radioligand, read-out: Affinity, Mean
T2 construct: expressed in transfected cells
Description: as §1

h5-HT2A [1] = target: T3, h5-HT2A (Homo sapiens, UniProt P28223); experiment: Radioligand binding, human cloned h5-HT2A
T3 construct: expressed in transfected cells; host or cells: AV12 cells
Description: as §1

h5-HT2B [2] = target: T4, h5-HT2B (Homo sapiens, UniProt P41595); experiment: Radioligand binding, human cloned h5-HT2B
T4 construct: expressed in transfected cells; host or cells: AV12 cells
Description: as §1

h5-HT4 = target: T5, h5-HT4 (Homo sapiens, UniProt Q13639); experiment: Radioligand binding, human cloned h5-HT4; settings: agonist radioligand, n = 2, read-out: Affinity, Mean
T5 construct: expressed in transfected cells
Description: as §1

h5-HT7 = target: T6, h5-HT7 (Homo sapiens, UniProt P34969); experiment: Radioligand binding, human cloned h5-HT7
T6 construct: expressed in transfected cells
Description: as §1

h5-HT2A [3] = target: T3, h5-HT2A; experiment: GTP-γ-[35S] functional assay (SPA), AV12 cells; assay type: biochemical
Description: (§2) 5-HT2 receptors are functionally coupled to specific G-proteins. Agonist activation of 5-HT2 G-protein coupled receptors results in the release of GDP from alpha-subunit (G alpha q or G alpha i) of the G-protein and the subsequent binding of GTP. The binding of the stable analog GTP-g-[^35S] is an indicator of receptor activation. Human cloned 5-HT2A, −2B, and −2C receptors were expressed in AV12 cells. GTP-g-[^35S] nucleotide exchange scintillation proximity assay (SPA) was used to measure binding as previously described ([14]).

h5-HT2B [4] = target: T4, h5-HT2B; experiment: GTP-γ-[35S] functional assay (SPA), AV12 cells; assay type: biochemical
Description: as §2

h5-HT2C = target: T7, h5-HT2C (Homo sapiens, UniProt P28335); experiment: GTP-γ-[35S] functional assay (SPA), AV12 cells; assay type: biochemical
T7 construct: expressed in transfected cells; host or cells: AV12 cells
Description: as §2

L-Verapamil site = experiment: CEREP broad receptor screening panel; assay type: binding; design: dose or concentration left out as unconfirmed; settings: CPD 1 (table title), duplicate
Description: (§3) Additional selectivity assessment of CPD 1 was performed at CEREP. Methods are available for the multiple assays utilized at http://www.cerep.fr/cerep/users/pages/catalog/assay/catalog.asp. The specific ligand binding to the receptors is defined as the difference between the total binding and the non-specific binding determined in the presence of an excess of unlabeled ligand.

α1 = experiment: CEREP broad receptor screening panel; assay type: binding; design: dose or concentration left out as unconfirmed; settings: CPD 1 (table title), duplicate
Description: as §3

D1 = target: T8, D1 (Homo sapiens, UniProt P21728); experiment: CEREP broad receptor screening panel; assay type: binding; settings: CPD 1 10 µM (table title), duplicate
T8 construct: CEREP
Description: as §3

D2s = target: T9, D2s (Homo sapiens, UniProt P14416); experiment: CEREP broad receptor screening panel; assay type: binding; settings: CPD 1 10 µM (table title), duplicate
T9 construct: CEREP
Description: as §3

D3 = target: T10, D3 (Homo sapiens, UniProt P35462); experiment: CEREP broad receptor screening panel; assay type: binding; settings: CPD 1 10 µM (table title), duplicate
T10 construct: CEREP
Description: as §3

D4.4 = target: T11, D4.4 (Homo sapiens, UniProt P21917); experiment: CEREP broad receptor screening panel; assay type: binding; settings: CPD 1 10 µM (table title), duplicate
T11 construct: CEREP
Description: as §3

D5 = target: T12, D5 (Homo sapiens, UniProt P21918); experiment: CEREP broad receptor screening panel; assay type: binding; settings: CPD 1 10 µM (table title), duplicate
T12 construct: CEREP
Description: as §3

H1 = target: T13, H1 (Homo sapiens, UniProt P35367); experiment: CEREP broad receptor screening panel; assay type: binding; settings: CPD 1 10 µM (table title), duplicate
T13 construct: CEREP
Description: as §3

H2 = target: T14, H2 (Homo sapiens, UniProt P25021); experiment: CEREP broad receptor screening panel; assay type: binding; settings: CPD 1 10 µM (table title), duplicate
T14 construct: CEREP
Description: as §3

M1 = target: T15, M1 (Homo sapiens, UniProt P11229); experiment: CEREP broad receptor screening panel; assay type: binding; settings: CPD 1 10 µM (table title), duplicate
T15 construct: CEREP
Description: as §3

M3 = target: T16, M3 (Homo sapiens, UniProt P20309); experiment: CEREP broad receptor screening panel; assay type: binding; settings: CPD 1 10 µM (table title), duplicate
T16 construct: CEREP (contract screening)
Description: as §3

NE transporter = target: T17, NE transporter (Homo sapiens, UniProt P23975); experiment: CEREP broad receptor screening panel; assay type: binding; settings: CPD 1 10 µM (table title), duplicate
T17 construct: CEREP (contract screening)
Description: as §3

Na+ Channel = experiment: CEREP broad receptor screening panel; assay type: binding; settings: CPD 1 10 mM (table title), duplicate
Description: as §3

α2 = experiment: CEREP broad receptor screening panel; assay type: binding; settings: CPD 1 10 mM (table title), duplicate
Description: as §3

β2 = target: T18, β2 (Homo sapiens, UniProt P07550); experiment: CEREP broad receptor screening panel; assay type: binding; settings: CPD 1 10 µM (table title), duplicate
T18 construct: CEREP
Description: as §3

σ = experiment: CEREP broad receptor screening panel; assay type: binding; settings: CPD 1 10 mM (table title), duplicate
Description: as §3

Male, Wistar rats = experiment: Isoproterenol-induced drinking; assay type: in vivo, rat; settings: 5.6 mg/kg
Description: Male, Wistar rats (different from those rats used in the schedule-induced polydipsia studies) were used. They were 331 ± 11 g at the initiation of this study. Compound 1 (5.6 mg/kg, s.c.) was evaluated for its ability to reduce drinking. (±)-isoproterenol (30 μg/kg, s.c.) was given to induce drinking (n = 5–20 rat/group). Ten minutes after vehicle or (±)-isoproterenol injection, rats were given either vehicle or Compound 1 and a 60 min session began in which the rats in individual housing cages were given access to water 20 min after the second injection. The weight of the water bottle before and after the 60 min period was measured to the nearest 0.1 g. After the experiment, the animals were returned to their living cages with continuous access to food and water.

Male, NIH Swiss mice [5] = experiment: Rotarod performance; assay type: in vivo, mouse; settings: mice, 10 mg/kg
Description: Mice were not pretrained on this task.

Male, NIH Swiss mice [6] = system: Male, NIH Swiss mice
Male, NIH Swiss mice [7] = experiment: Nestlet-shredding; settings: 8/dose group
[8] = GTPgs functional assay, human recombinant cell line
[9] = 10 mg/kg, 5 days of consecutive dosing

T4 sequence (P41595 whole entry): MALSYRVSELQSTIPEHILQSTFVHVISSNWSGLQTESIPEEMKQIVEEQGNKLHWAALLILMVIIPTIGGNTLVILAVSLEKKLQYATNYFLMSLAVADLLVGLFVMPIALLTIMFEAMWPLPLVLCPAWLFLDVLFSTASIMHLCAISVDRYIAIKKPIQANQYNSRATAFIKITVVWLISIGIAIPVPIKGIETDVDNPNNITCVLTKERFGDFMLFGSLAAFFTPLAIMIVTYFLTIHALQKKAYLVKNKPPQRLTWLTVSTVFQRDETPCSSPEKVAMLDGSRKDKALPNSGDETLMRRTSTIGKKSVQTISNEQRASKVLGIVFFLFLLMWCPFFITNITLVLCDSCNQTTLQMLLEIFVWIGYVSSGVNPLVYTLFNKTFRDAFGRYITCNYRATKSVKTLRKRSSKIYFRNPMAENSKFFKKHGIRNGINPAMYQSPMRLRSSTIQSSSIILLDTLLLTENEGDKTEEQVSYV
T7 sequence (P28335 33-458): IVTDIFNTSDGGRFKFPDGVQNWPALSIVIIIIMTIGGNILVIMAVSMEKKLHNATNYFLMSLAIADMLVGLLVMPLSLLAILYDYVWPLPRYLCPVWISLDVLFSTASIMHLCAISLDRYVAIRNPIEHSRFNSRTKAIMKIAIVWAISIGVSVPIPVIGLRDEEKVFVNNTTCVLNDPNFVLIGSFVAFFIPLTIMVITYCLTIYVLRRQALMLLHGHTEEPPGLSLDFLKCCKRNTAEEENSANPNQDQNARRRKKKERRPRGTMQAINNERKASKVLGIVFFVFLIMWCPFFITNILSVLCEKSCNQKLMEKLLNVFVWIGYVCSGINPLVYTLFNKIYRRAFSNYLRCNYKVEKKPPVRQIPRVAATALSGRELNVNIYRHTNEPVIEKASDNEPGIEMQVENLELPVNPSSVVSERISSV
T3 sequence (P28223 whole entry): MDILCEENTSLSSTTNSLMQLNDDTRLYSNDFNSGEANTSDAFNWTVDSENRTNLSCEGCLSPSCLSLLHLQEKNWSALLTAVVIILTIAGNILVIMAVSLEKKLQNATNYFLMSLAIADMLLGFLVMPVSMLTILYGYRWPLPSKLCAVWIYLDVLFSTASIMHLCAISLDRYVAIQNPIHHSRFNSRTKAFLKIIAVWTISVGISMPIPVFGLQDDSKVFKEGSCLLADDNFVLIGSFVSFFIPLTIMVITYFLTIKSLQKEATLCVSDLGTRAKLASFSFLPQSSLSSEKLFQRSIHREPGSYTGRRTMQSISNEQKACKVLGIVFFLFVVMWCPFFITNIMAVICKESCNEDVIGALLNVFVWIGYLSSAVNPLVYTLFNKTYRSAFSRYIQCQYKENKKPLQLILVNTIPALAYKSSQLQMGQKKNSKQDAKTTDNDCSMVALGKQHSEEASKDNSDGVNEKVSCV
T6 sequence (P34969 whole entry): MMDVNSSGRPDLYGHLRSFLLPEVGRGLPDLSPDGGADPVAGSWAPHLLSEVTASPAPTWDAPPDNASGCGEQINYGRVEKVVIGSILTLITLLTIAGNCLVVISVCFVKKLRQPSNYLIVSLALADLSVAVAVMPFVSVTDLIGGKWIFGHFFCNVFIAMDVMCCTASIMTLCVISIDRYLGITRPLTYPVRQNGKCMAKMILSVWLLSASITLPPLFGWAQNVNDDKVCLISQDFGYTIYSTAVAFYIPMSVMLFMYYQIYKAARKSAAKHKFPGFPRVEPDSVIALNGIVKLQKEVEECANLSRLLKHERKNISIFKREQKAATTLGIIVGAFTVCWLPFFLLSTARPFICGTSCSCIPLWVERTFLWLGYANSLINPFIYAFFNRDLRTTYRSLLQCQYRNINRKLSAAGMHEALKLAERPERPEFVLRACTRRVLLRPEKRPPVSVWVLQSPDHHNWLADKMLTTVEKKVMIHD
T9 sequence (P14416 1-414 isoform P14416-2): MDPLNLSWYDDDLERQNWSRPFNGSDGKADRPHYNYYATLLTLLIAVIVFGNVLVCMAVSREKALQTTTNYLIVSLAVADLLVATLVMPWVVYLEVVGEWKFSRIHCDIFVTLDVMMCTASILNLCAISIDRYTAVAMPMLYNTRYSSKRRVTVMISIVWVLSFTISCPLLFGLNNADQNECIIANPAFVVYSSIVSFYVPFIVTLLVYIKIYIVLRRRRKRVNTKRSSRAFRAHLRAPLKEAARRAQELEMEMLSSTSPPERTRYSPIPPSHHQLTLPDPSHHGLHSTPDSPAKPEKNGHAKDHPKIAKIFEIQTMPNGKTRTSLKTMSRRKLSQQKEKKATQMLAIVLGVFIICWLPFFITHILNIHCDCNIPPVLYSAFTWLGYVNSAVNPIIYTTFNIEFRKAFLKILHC
T17 sequence (P23975 whole entry): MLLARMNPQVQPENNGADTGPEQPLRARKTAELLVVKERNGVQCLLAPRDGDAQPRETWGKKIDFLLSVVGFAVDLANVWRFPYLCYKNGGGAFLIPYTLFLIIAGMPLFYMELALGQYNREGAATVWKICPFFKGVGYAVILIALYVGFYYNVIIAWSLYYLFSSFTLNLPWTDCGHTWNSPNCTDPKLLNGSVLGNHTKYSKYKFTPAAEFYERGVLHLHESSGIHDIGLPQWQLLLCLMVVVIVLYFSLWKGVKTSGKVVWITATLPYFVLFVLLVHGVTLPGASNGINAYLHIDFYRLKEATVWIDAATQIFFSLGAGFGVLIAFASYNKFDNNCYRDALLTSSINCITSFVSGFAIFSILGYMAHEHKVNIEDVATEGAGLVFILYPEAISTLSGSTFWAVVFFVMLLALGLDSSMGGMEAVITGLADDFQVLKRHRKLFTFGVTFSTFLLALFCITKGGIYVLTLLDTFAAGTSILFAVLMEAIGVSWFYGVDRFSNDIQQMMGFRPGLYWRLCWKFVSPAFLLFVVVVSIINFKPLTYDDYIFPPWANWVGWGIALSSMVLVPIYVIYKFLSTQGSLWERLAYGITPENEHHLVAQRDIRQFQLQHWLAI
T10 sequence (P35462 whole entry): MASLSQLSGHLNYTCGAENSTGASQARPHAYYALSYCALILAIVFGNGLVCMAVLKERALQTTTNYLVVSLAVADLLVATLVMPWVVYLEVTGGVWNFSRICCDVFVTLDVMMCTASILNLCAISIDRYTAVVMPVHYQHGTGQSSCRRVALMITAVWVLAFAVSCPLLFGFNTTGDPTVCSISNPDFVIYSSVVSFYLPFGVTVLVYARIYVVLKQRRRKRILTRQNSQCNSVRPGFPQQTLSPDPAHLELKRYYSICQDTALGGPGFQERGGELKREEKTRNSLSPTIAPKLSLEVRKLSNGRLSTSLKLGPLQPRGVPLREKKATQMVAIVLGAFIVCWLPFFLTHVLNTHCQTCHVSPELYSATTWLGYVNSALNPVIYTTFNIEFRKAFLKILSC
T18 sequence (P07550 whole entry): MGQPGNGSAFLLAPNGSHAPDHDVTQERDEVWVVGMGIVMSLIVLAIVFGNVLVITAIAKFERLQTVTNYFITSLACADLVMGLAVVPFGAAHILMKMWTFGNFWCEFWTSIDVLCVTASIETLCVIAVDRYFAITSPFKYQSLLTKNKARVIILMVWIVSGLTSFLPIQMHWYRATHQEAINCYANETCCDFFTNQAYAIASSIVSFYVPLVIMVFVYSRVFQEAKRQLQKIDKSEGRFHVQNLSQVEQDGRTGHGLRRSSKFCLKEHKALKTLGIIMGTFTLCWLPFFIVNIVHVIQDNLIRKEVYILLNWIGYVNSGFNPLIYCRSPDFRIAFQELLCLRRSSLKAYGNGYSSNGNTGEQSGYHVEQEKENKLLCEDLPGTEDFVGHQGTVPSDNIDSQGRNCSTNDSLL
T8 sequence (P21728 whole entry): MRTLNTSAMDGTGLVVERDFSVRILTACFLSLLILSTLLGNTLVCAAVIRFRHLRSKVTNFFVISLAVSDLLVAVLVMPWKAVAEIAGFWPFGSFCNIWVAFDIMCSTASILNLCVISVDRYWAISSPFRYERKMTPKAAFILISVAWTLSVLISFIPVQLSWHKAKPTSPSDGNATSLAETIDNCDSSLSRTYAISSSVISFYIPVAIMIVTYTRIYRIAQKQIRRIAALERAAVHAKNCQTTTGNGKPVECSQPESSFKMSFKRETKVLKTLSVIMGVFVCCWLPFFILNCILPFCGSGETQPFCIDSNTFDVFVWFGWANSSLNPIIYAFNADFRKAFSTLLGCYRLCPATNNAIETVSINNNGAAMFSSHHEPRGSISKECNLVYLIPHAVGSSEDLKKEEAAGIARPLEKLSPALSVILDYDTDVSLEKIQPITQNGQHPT
T14 sequence (P25021 whole entry): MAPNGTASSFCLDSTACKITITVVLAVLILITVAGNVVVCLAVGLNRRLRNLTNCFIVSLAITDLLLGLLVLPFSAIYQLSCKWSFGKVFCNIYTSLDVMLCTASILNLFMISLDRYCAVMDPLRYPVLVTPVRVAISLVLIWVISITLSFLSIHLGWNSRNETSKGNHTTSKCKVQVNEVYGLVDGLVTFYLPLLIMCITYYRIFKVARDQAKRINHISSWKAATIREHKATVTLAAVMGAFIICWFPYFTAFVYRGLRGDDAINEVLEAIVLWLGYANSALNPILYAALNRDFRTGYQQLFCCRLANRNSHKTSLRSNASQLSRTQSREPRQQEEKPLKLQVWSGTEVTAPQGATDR
T15 sequence (P11229 whole entry): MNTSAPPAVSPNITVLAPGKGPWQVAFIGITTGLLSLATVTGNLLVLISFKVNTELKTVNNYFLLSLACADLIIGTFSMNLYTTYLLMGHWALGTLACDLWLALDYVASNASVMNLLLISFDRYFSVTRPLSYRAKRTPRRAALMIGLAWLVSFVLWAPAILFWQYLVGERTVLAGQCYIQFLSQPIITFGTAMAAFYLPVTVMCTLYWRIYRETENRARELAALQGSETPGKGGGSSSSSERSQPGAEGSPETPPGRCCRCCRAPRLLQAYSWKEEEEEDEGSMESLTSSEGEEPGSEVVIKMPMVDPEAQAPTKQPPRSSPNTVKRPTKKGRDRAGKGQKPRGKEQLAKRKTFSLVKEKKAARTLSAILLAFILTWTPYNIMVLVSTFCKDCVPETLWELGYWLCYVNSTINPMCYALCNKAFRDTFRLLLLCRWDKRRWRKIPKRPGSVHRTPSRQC

C[C@H]1CN(c2ccc(C(F)(F)F)c3ccoc23)CCN1 [CPD 1, (3S)-3-methyl-1-[4-(trifluoromethyl)-7-benzofuranyl]-piperazine]
Ki (h5-HT1B): 1.11 µM | Ki (h5-HT1E): 1.03 µM | Ki (h5-HT2A [1]; agonist radioligand, h5-HT2A, read-out: Affinity, Mean): 0.0472 µM | selectivity for h5-HT2C over h5-HT2A receptors (h5-HT2A [1]; binding affinities): 22 fold | Ki (h5-HT2B [2]; agonist radioligand, h5-HT2B, read-out: Affinity, Mean): 0.104 µM | selectivity for h5-HT2C over h5-HT2B receptors (h5-HT2B [2]; binding affinities): 50 fold | Ki (h5-HT4): 0.977 µM | Ki (h5-HT7; agonist radioligand, h5-HT7, read-out: Affinity, Mean): > 2 µM | inhibition at 2 µM (h5-HT7; at a concentration of 2 µM): < 50% | Functional activity (kind of agonism) (h5-HT2A [3]; 5-HT2A): partial agonist | EC50 (h5-HT2A [3]; [8]): 0.269 ± 0.019 µM | Emax (h5-HT2A [3]; [8]): 53 ± 2% | Functional activity (kind of agonism) (h5-HT2B [4]; 5-HT2B): partial agonist | EC50 (h5-HT2B [4]; [8]): 0.097 ± 0.023 µM | Emax (h5-HT2B [4]; [8]): 51% | Functional activity (kind of agonism) (h5-HT2C; 5-HT2C): full agonist | EC50 (h5-HT2C; [8]): 0.0081 ± 0.0005 µM | Emax (h5-HT2C; [8]): 110 ± 1% | % Inhibition (L-Verapamil site): 59% | % Inhibition (α1): 82% | inhibition at 10 µM (D1): 94% | inhibition at 10 µM (D2s): 61% | inhibition at 10 µM (D3): 82% | inhibition at 10 µM (D4.4): 105% | inhibition at 10 µM (D5): 69% | inhibition at 10 µM (H1): 93% | inhibition at 10 µM (H2): 70% | inhibition at 10 µM (M1): 56% | inhibition at 10 µM (M3): 76% | inhibition at 10 µM (NE transporter): 74% | % Inhibition (Na+ Channel): 101% | % Inhibition (α2): 70% | inhibition at 10 µM (β2): 104% | % Inhibition (σ): 100% | Reduction of isoproterenol-induced drinking (Male, Wistar rats; s.c.): 77% | Effect on normal drinking (Male, Wistar rats; without isoproterenol): did not significantly affect | Rotarod falls and failures (Male, NIH Swiss mice [5]; after 5 days of dosing, 12 mice): neither falls nor failures | Rotarod failures (mice failing / tested) (Male, NIH Swiss mice [5]; day 1): 0/12 | Rotarod falls (mice falling / tested) (Male, NIH Swiss mice [5]; day 1): 2/12 | Effect on marble-burying compared to vehicle over five consecutive days (Male, NIH Swiss mice [6]; [9]): significantly decreased | Tolerance to suppressant effect on marble-burying with repeated dosing (Male, NIH Swiss mice [6]; [9]): did not produce tolerance | Marble-burying, minimal effective dose (Male, NIH Swiss mice [6]; 12/dose group): 10 milligrams per kilogram | Nestlet-shredding, minimal effective dose (Male, NIH Swiss mice [7]): 3 milligrams per kilogram
